How the values were obtained:
Type in all cases: functional
MCF7 [1] = experiment: Cytotoxicity against human MCF7 cells assessed as cell growth at 10 uM after 48 hrs by sulforhodamine B assay relative to control; conditions: MCF7, 48 h, read-out: Activity
OVCAR-4 [2] = experiment: Cytotoxicity against human OVCAR4 cells assessed as cell growth at 100 uM after 48 hrs by sulforhodamine B assay relative to control; conditions: OVCAR-4, 48 h, read-out: Activity
U-251 [3] = experiment: Cytotoxicity against human U251 cells assessed as cell growth at 0.1 uM after 48 hrs by sulforhodamine B assay relative to control; conditions: U-251, 48 h, read-out: Activity
NCI-H522 [4] = experiment: Cytotoxicity against human NCI-H522 cells assessed as cell growth at 0.01 uM after 48 hrs by sulforhodamine B assay relative to control; conditions: NCI-H522, 48 h, read-out: Activity
SF-268 = experiment: Cytotoxicity against human SF268 cells assessed as cell growth at 1 uM after 48 hrs by sulforhodamine B assay relative to control; conditions: SF-268, 48 h, read-out: Activity
NCI-H522 [5] = experiment: Cytotoxicity against human NCI-H522 cells assessed as cell growth at 10 uM after 48 hrs by sulforhodamine B assay relative to control; conditions: NCI-H522, 48 h, read-out: Activity
Malme-3M = experiment: Cytotoxicity against human MALME-3M cells assessed as cell growth at 0.1 uM after 48 hrs by sulforhodamine B assay relative to control; conditions: read-out: Activity
Hs-578T [6] = experiment: Cytotoxicity against human Hs 578T cells assessed as growth inhibition after 48 hrs by sulforhodamine B assay
MCF7 [7] = experiment: Cytotoxicity against human MCF7 cells assessed as cell growth at 0.1 uM after 48 hrs by sulforhodamine B assay relative to control; conditions: MCF7, 48 h, read-out: Activity
UACC-62 [8] = experiment: Cytotoxicity against human UACC62 cells assessed as cell growth at 100 uM after 48 hrs by sulforhodamine B assay relative to control; conditions: UACC-62, 48 h, read-out: Activity
UACC-257 [9] = experiment: Cytotoxicity against human UACC257 cells assessed as cell growth at 0.01 uM after 48 hrs by sulforhodamine B assay relative to control; conditions: UACC-257, 48 h, read-out: Activity
SW-620 = experiment: Cytotoxicity against human SW620 cells assessed as cell growth at 0.1 uM after 48 hrs by sulforhodamine B assay relative to control; conditions: SW-620, 48 h, read-out: Activity
BT-549 [10] = experiment: Cytotoxicity against human BT549 cells assessed as cell growth at 100 uM after 48 hrs by sulforhodamine B assay relative to control; conditions: BT-549, 48 h, read-out: Activity
MDA-MB-435 [11] = experiment: Cytotoxicity against human MDA-MB-435 cells assessed as cell growth at 10 uM after 48 hrs by sulforhodamine B assay relative to control; conditions: MDA-MB-435, 48 h, read-out: Activity
LOX IMVI = experiment: Cytotoxicity against human LOXIMVI cells assessed as growth inhibition after 48 hrs by sulforhodamine B assay
UACC-62 [12] = experiment: Cytotoxicity against human UACC62 cells assessed as cell growth at 0.1 uM after 48 hrs by sulforhodamine B assay relative to control; conditions: UACC-62, 48 h, read-out: Activity
OVCAR-4 [13] = experiment: Cytotoxicity against human OVCAR4 cells assessed as growth inhibition after 48 hrs by sulforhodamine B assay; conditions: OVCAR-4, 48 h
T47D = experiment: Cytotoxicity against human T47D cells assessed as cell growth at 10 uM after 48 hrs by sulforhodamine B assay relative to control; conditions: read-out: Activity
MDA-MB-435 [14] = experiment: Cytotoxicity against human MDA-MB-435 cells assessed as cell growth at 100 uM after 48 hrs by sulforhodamine B assay relative to control; conditions: MDA-MB-435, 48 h, read-out: Activity
Hs-578T [15] = experiment: Cytotoxicity against human Hs 578T cells assessed as cell growth at 0.1 uM after 48 hrs by sulforhodamine B assay relative to control; conditions: read-out: Activity
786-0 = experiment: Cytotoxicity against human 786-0 cells assessed as cell growth at 0.1 uM after 48 hrs by sulforhodamine B assay relative to control; conditions: 786-0, 48 h, read-out: Activity
PC-3 [16] = experiment: Cytotoxicity against human PC3 cells assessed as cell growth at 100 uM after 48 hrs by sulforhodamine B assay relative to control; conditions: PC-3, 48 h, read-out: Activity
SNB-19 = experiment: Cytotoxicity against human SNB19 cells assessed as growth inhibition after 48 hrs by sulforhodamine B assay; conditions: SNB-19, 48 h
PC-3 [17] = experiment: Cytotoxicity against human PC3 cells assessed as cell growth at 1 uM after 48 hrs by sulforhodamine B assay relative to control; conditions: PC-3, 48 h, read-out: Activity
HCT-116 = experiment: Cytotoxicity against human HCT116 cells assessed as cell growth at 0.1 uM after 48 hrs by sulforhodamine B assay relative to control; conditions: HCT-116, 48 h, read-out: Activity
UACC-257 [18] = experiment: Cytotoxicity against human UACC257 cells assessed as cell growth at 0.1 uM after 48 hrs by sulforhodamine B assay relative to control; conditions: UACC-257, 48 h, read-out: Activity
HL-60(TB) = experiment: Cytotoxicity against human HL-60(TB) cells assessed as cell growth at 0.1 uM after 48 hrs by sulforhodamine B assay relative to control; conditions: HL-60, 48 h, read-out: Activity
BT-549 [19] = experiment: Cytotoxicity against human BT549 cells assessed as growth inhibition after 48 hrs by sulforhodamine B assay; conditions: BT-549, 48 h
RXF 393 [20] = experiment: Cytotoxicity against human RXF393 cells assessed as growth inhibition after 48 hrs by sulforhodamine B assay; conditions: RXF 393, 48 h
U-251 [21] = experiment: Cytotoxicity against human U251 cells assessed as growth inhibition after 48 hrs by sulforhodamine B assay; conditions: U-251, 48 h
ACHN = experiment: Cytotoxicity against human ACHN cells assessed as cell growth at 0.01 uM after 48 hrs by sulforhodamine B assay relative to control; conditions: read-out: Activity
NCI-H322M = experiment: Cytotoxicity against human NCI-H322M cells assessed as cell growth at 10 uM after 48 hrs by sulforhodamine B assay relative to control; conditions: read-out: Activity
OVCAR-3 = experiment: Cytotoxicity against human OVCAR3 cells assessed as cell growth at 0.01 uM after 48 hrs by sulforhodamine B assay relative to control; conditions: OVCAR-3, 48 h, read-out: Activity
RXF 393 [22] = experiment: Cytotoxicity against human RXF393 cells assessed as cell growth at 1 uM after 48 hrs by sulforhodamine B assay relative to control; conditions: RXF 393, 48 h, read-out: Activity
UACC-257 [23] = experiment: Cytotoxicity against human UACC257 cells assessed as growth inhibition after 48 hrs by sulforhodamine B assay; conditions: UACC-257, 48 h

COc1cc(-c2cc(/C=C/C(=O)c3ccc(F)c(F)c3)[nH]n2)cc(OC)c1OC
growth at 10 µM (MCF7 [1]): 2% | growth at 100 µM (OVCAR-4 [2]): -3% | growth at 0.1 µM (U-251 [3]): 96% | growth at 0.01 µM (NCI-H522 [4]): 96% | growth at 1 µM (SF-268): 83% | growth at 10 µM (NCI-H522 [5]): -38% | growth at 0.1 µM (Malme-3M): 90% | LC50 (Hs-578T [6]): > 100 µM | TGI (Hs-578T [6]): 36.8 µM | growth at 0.1 µM (MCF7 [7]): 98% | growth at 100 µM (UACC-62 [8]): -81% | growth at 0.01 µM (UACC-257 [9]): 88% | growth at 0.1 µM (SW-620): 97% | growth at 100 µM (BT-549 [10]): -58% | growth at 10 µM (MDA-MB-435 [11]): 5% | LC50 (LOX IMVI): 41.5 µM | TGI (LOX IMVI): 12.2 µM | growth at 0.1 µM (UACC-62 [12]): 93% | LC50 (OVCAR-4 [13]): > 100 µM | TGI (OVCAR-4 [13]): 71.8 µM | growth at 10 µM (T47D): 9% | growth at 100 µM (MDA-MB-435 [14]): -34% | growth at 0.1 µM (Hs-578T [15]): 97% | growth at 0.1 µM (786-0): 95% | growth at 100 µM (PC-3 [16]): -41% | TGI (SNB-19): > 100 µM | CC50 (SNB-19; read-out: LC50 (the source's name)): > 100 µM | growth at 1 µM (PC-3 [17]): 70% | growth at 0.1 µM (HCT-116): 102% | growth at 0.1 µM (UACC-257 [18]): 92% | growth at 0.1 µM (HL-60(TB)): 93% | LC50 (concentration killing 50% of cells) (BT-549 [19]): 79.5 µM | TGI (BT-549 [19]): 19.3 µM | LC50 (concentration killing 50% of cells) (RXF 393 [20]): 54.1 µM | TGI (RXF 393 [20]): 6.34 µM | LC50 (U-251 [21]): > 100 µM | TGI (U-251 [21]): 15.7 µM | growth at 0.01 µM (ACHN): 102% | growth at 10 µM (NCI-H322M): 18% | growth at 0.01 µM (OVCAR-3): 102% | growth at 1 µM (RXF 393 [22]): 82% | LC50 (UACC-257 [23]): > 100 µM | TGI (UACC-257 [23]): 6.28 µM

Reference: ChEMBL document CHEMBL4138123, “Design, synthesis and biological evaluation of novel pyrazolochalcones as potential modulators of PI3K/Akt/mTOR pathway and inducers of apoptosis in breast cancer cells” (Eur J Med Chem, 2017)
